In article PMC3433255 (Journal of medicinal chemistry, 2012):

Columns and labels:
[1] = system: MCF-7 breast cancer cells; assay: Growth inhibition, 3 h treatment; type: cell-based, human; conditions: MCF-7, 3 h treatment followed by 3 – 4 days of growth; outside the concentration range; average of at least six measurements
[2] = physiological conditions, 37 °C and pH 7; cited from earlier work

COc1cccc2c1C(=O)c1c(O)c3c(c(O)c1C2=O)C[C@@](O)(C(=O)CO)C[C@@H]3O[C@H]1C[C@H](NC(=O)OCc2ccc(NC(=O)[C@H](CCCCN)NC(=O)[C@H](Cc3ccccc3)NC(=O)[C@@H](C)N)cc2)[C@H](O)[C@H](C)O1.O=P(O)(O)O [aFK-Dox, N-(N-(D-alanyl-L-phenylalanyl-L-lysyl)-p-aminobenzyloxycarbonyl)-doxorubicin]
IC50 [1]: > −6 log M

COc1cccc2c1C(=O)c1c(O)c3c(c(O)c1C2=O)C[C@@](O)(C(=O)CO)C[C@@H]3O[C@H]1C[C@@H]2NCO[C@@H]2[C@H](C)O1 [doxaz, doxazolidine]
half-life of hydrolysis to dox [2]: approximately 3 min
